Four molecules from US10966426B2, “Herbicidal compositions comprising phenylpyrimidines” (BASF SE, priority 2016, dated 2021) can be followed below.

Assay type in all cases: in vivo
One experiment has as its system Papaver rhoeas. The experiment in a line: greenhouse post-emergence treatment, PAPRH. Conditions: Papaver rhoeas. The method in brief:
(§1)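 Each species was grown separately and treated once it reached 3 to 15 cm, using actives suspended or emulsified in water. Plants were kept at 10-25° C. or 20-35° C., depending on species. Damage is a 0–100 rating taken during 2 to 4 weeks.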

Another experiment has as its system Apera spica-venti. The experiment in a line: greenhouse post-emergence treatment, APESV. Conditions: APESV, 20 DAT. The method in brief:
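Seeds sown per species in pots of loamy sand; seedlings either grown in place or transplanted days before treatment. Post-emergence spray of water-based liquor at 3–15 cm height. Injury rated 0–100 over 2 to 4 weeks.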

The next experiment relates to Polygonum aviculare. Nature of the experiment: greenhouse post-emergence treatment, POLAV. Conditions: Polygonum aviculare, 480 h, 20 DAT. Here is the method: The culture containers used were plastic pots containing loamy sand with approximately 3.0% of humus as substrate. The seeds of the test plants were sown separately for each species.
For the post-emergence treatment, the test plants were grown to a plant height of from 3 to 15 cm, depending on the plant habit, and only then treated with the active compounds which had been suspended or emulsified in water. To this end, the test plants were either sown directly, and grown in the same containers, or they were first grown separately as seedlings and transplanted into the test containers a few days prior to treatment.
Depending on the species, the plants were kept at 10-25° C. and 20-35° C., respectively.
The test period extended over 2 to 4 weeks. During this time, the plants were tended and their response to the individual treatments was evaluated.
Evaluation was carried out using a scale from 0 to 100. 100 means no emergence of the plants, or complete destruction of at least the above-ground parts, and 0 means no damage or normal course of growth. A good herbicidal activity is given at values of at least 70, and very good herbicidal activity is given at values of at least 85.
The respective stated components A and B, and if appropriate, C were formulated as a 10% by weight strength emulsion concentrate and, with addition of the amount of solvent system, introduced into the spray liquor used for applying the active compound. In the examples, the solvent used was water.
In the examples below, using the method of S. R. Colby (1967) “Calculating synergistic and antagonistic responses of herbicide combinations”, Weeds 15, p. 22ff., the value E, which is expected if the activity of the individual active compounds is only additive, was calculated. E=X+Y−(X·Y/100) where X=effect in percent using herbicide A at an application rate a; • Y=effect in percent using herbicide B at application rate b; • E=expected effect (in %) of herbicide A+herbicide B at application rates a+b.

Another experiment relates to Galium aparine. The experiment in a line: greenhouse post-emergence treatment, GALAP. The note with it: Galium aparine, 480 h, GALAP, 20 DAT. The method in brief:
as §1

Another experiment has as its system Polygonum convolvulus. The experiment in a line: greenhouse pre-emergence treatment, POLCO. The note with it: Fallopia convolvulus, 480 h, 20 DAT, POLCO. An outline of the steps: (§2)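 Seeds were sown per species in pots of loamy sand with about 3.0% humus, sprayed with the aqueous spray liquor directly after sowing, watered and hooded until rooted, then kept at 10-25° C. or 20-35° C. for 2 to 4 weeks. Damage was scored 0 (none) to 100 (no emergence/complete destruction).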

In a further experiment the test system is Stellaria media. Nature of the experiment: greenhouse pre-emergence treatment, STEME. The note with it: Stellaria media, 480 h, 20 DAT. The method in brief: as §2
A further experiment has as its system Avena fatua. Nature of the experiment: greenhouse pre-emergence treatment, AVEFA. Conditions: Avena fatua, 480 h, 20 DAT, AVEFA. The method in brief:
as §2

Another experiment deals with Ambrosia elatior. The experiment in a line: greenhouse pre-emergence treatment, AMBEL. The note with it: Ambrosia artemisiifolia, 480 h, 20 DAT, AMBEL. The method in brief:
as §2

The next experiment relates to Setaria viridis. Nature of the experiment: greenhouse pre-emergence treatment, SETVI. The note with it: Setaria viridis, 480 h, 31.25 gai/ha (EC 750 g/l), 20 DAT, SETVI, Table X1, read-out: % activity, solo application. The method in brief: as §2
For another experiment, the system named is Bromus sterilis. The experiment in a line: greenhouse pre-emergence treatment, BROST. The note with it: Bromus sterilis, 480 h, 20 DAT, BROST, Table X1, read-out: % activity, solo application. The method in brief:
as §2

A further experiment has as its system Helianthus annuus. Nature of the experiment: greenhouse pre-emergence treatment, HELAN. The note with it: Helianthus annuus, 480 h, 125 gai/ha (EC 750 g/l), 20 DAT, HELAN, Table X1, read-out: % activity, solo application. The method in brief:
as §2

Where [1] appears, read: flufenacet SC 500 g/l solo 31.25 gai/ha.
The mark [2] stands for this setting: flufenacet SC 500 g/l solo 62.5 gai/ha, read-out: % activity.
Where [3] appears, read: 62.5 gai/ha (EC 750 g/l), Table X1, read-out: % activity, solo application.
Setting [4] is: 125 gai/ha (EC 750 g/l), Table X1, read-out: % activity, solo application.

Like-named read-outs stand apart in the source and are kept apart here.

Turning to `CCCCCCCCSC(=O)Oc1cc(Cl)nnc1-c1ccccc1` [pyridate], the pest or weed control at 112.5 g/ha in the experiment on Papaver rhoeas (480 h, PAPRH, solo pyridate (WP 45%) 112.5 gai/ha, 20 DAT) was found to be 0%; in the experiment with Galium aparine (solo pyridate (WP 45%) 112.5 gai/ha), 40%. The pest or weed control at 225 g/ha with Papaver rhoeas (480 h, PAPRH, solo pyridate (WP 45%) 225 gai/ha, 20 DAT) turned out to be 10%; in the experiment with Galium aparine (solo pyridate (WP 45%) 225 gai/ha), 85%. Also, in the experiment with Papaver rhoeas (480 h, PAPRH, solo pyridate (WP 45%) 450 gai/ha, 20 DAT), the pest or weed control at 450 g/ha amounted to 50%. Moreover, the pest or weed control at 900 g/ha with Papaver rhoeas (480 h, PAPRH, solo pyridate (WP 45%) 900 gai/ha, 20 DAT) was found to be 70%. In addition, the inhibition at 112.5 g/ha in the experiment on Papaver rhoeas (480 h, pyridate solo 112.5 gai/ha, 20 DAT, PAPRH) was 0%; with Apera spica-venti (Apera spica-venti, 480 h, pyridate solo 112.5 gai/ha), 0%; in the experiment on Polygonum aviculare (pyridate solo 112.5 gai/ha, POLAV) it was 0%; in the experiment with Galium aparine (pyridate solo 112.5 gai/ha), 40%. For the same molecule, the inhibition at 225 g/ha with Papaver rhoeas (480 h, pyridate solo 225 gai/ha, 20 DAT, PAPRH) was 10%; in the experiment with Apera spica-venti (Apera spica-venti, 480 h, pyridate solo 225 gai/ha) it was 0%; with Polygonum aviculare (pyridate solo 225 gai/ha, POLAV) it was 20%; in the experiment with Galium aparine (pyridate solo 225 gai/ha), 85%. Also, the inhibition at 450 g/ha with Papaver rhoeas (480 h, pyridate solo 450 gai/ha, 20 DAT, PAPRH) was 50%; in the experiment on Apera spica-venti (Apera spica-venti, 480 h, pyridate solo 450 gai/ha), 0%; in the experiment on Polygonum aviculare (pyridate solo 450 gai/ha, POLAV), 20%. The inhibition at 900 g/ha with Papaver rhoeas (480 h, pyridate solo 900 gai/ha, 20 DAT, PAPRH) worked out at 70%; with Apera spica-venti (Apera spica-venti, 480 h, pyridate solo 900 gai/ha), 30%; in the experiment on Polygonum aviculare (pyridate solo 900 gai/ha, POLAV), 30%. Also, the “% activity” value in the experiment on Apera spica-venti (solo pyridate (WP 45%) 450 gai/ha) is 0%.

As for `CC(C)N(C(=O)COc1nnc(C(F)(F)F)s1)c1ccc(F)cc1` [flufenacet], the inhibition at 62.5 g/ha worked out at 0% in the experiment with Polygonum convolvulus (sc, flufenacet SC 500 g/l solo 62.5 gai/ha, read-out: % activity); 0% with Stellaria media (flufenacet SC 500 g/l solo 62.5 gai/ha); 0% in the experiment with Polygonum aviculare (flufenacet solo 62.5 gai/ha, read-out: % activity); 60% in the experiment on Avena fatua (setting [2]). In addition, the inhibition at 125 g/ha in the experiment on Polygonum convolvulus (sc, flufenacet SC 500 g/l solo 125 gai/ha, read-out: % activity) was determined as 0%; in the experiment on Stellaria media (flufenacet SC 500 g/l solo 125 gai/ha) it was 0%; in the experiment on Polygonum aviculare (flufenacet solo 125 gai/ha, read-out: % activity), 0%. For the same molecule, in the experiment with Stellaria media (flufenacet SC 500 g/l solo 15.6 gai/ha), the inhibition at 15.6 g/ha was determined as 0%. For the same molecule, the inhibition at 31.25 g/ha in the experiment on Stellaria media (setting [1]) came out at 0%. The inhibition at 500000 µg/mL (stock) was 0% in the experiment with Papaver rhoeas (480 h, PAPRH, 20 DAT, solo flufenacet (SC 500 g/l) 250 gai/ha) and 0% in the experiment on Polygonum aviculare (POLAV, solo flufenacet (SC 500 g/l) 250 gai/ha). Further, in the experiment with Polygonum aviculare (flufenacet solo 250 gai/ha), the inhibition at 250 g/ha is 0%. For the same molecule, the percent weed control (herbicidal activity, 0-100 scale) at 31.25 g/ha with Ambrosia elatior (setting [1]) stood at 0%. Further, the percent weed control (herbicidal activity, 0-100 scale) at 62.5 g/ha in the experiment on Ambrosia elatior (setting [2]) was determined as 0%. Besides, in the experiment on Ambrosia elatior (flufenacet SC 500 g/l solo 125 gai/ha, read-out: % activity), the percent weed control (herbicidal activity, 0-100 scale) at 125 g/ha is 0%.

`CC(C)N1C(=O)c2ccccc2NS1(=O)=O` [bentazon]: the inhibition at 120 g/ha in the experiment on Papaver rhoeas (480 h, 120 gai/ha (SL 480 g/l), 20 DAT, PAPRH, Table X3, read-out: % activity, solo application) was determined as 0%. Moreover, in the experiment on Papaver rhoeas (480 h, PAPRH, bentazon solo 30 gai/ha, 20 DAT), the pest or weed control at 30 g/ha is 0%. In addition, the pest or weed control at 60 g/ha with Papaver rhoeas (480 h, PAPRH, bentazon solo 60 gai/ha, 20 DAT) turned out to be 0%. Further, the pest or weed control at 120 g/ha with Papaver rhoeas (480 h, PAPRH, bentazon solo 120 gai/ha, 20 DAT) amounted to 0%.

`Cc1ccccc1CO[C@@H]1C[C@@]2(C(C)C)CC[C@]1(C)O2` (racemic) [cinmethylin]: the inhibition at 31.25 g/ha in the experiment on Setaria viridis turned out to be 85%; in the experiment with Polygonum convolvulus (31.25 gai/ha (EC 750 g/l), Table X1, read-out: % activity, solo application), 0%. Besides, the results for the inhibition at 62.5 g/ha with Bromus sterilis (62.5 gai/ha (EC 750 g/l)), in the experiment with Polygonum convolvulus (setting [3]) and in the experiment on Avena fatua (setting [3]) were 55%, 0% and 10%, respectively. In addition, the inhibition at 250 g/ha in the experiment with Bromus sterilis (250 gai/ha (EC 750 g/l)) worked out at 75%; in the experiment on Polygonum convolvulus (250 gai/ha (EC 750 g/l), Table X1, read-out: % activity, solo application), 0%. The results for the inhibition at 125 g/ha in the experiment on Polygonum convolvulus (setting [4]) and in the experiment on Helianthus annuus were 0% and 10%, respectively. In addition, the pest or weed control at 62.5 g/ha in the experiment with Papaver rhoeas (504 h, PAPRH, 21 DAT, solo cinmethylin (EC 750 g/l) 62.5 gai/ha) was determined as 0%. Besides, the pest or weed control at 125 g/ha in the experiment with Papaver rhoeas (504 h, read-out: % activity) was found to be 20%. For the same molecule, the pest or weed control at 250 g/ha with Papaver rhoeas (504 h, read-out: % activity) is 20%. In addition, the pest or weed control at 500 g/ha in the experiment on Papaver rhoeas (504 h, read-out: % activity) was 55%. For the same molecule, the percent weed control (herbicidal activity, 0-100 scale) at 62.5 g/ha in the experiment on Ambrosia elatior (setting [3]) worked out at 0%. The percent weed control (herbicidal activity, 0-100 scale) at 125 g/ha in the experiment with Ambrosia elatior (setting [4]) stood at 0%.
